Test results reported in patent US20030114482A1, “Use of retinoid receptor antagonists or agonists in the treatment of cartilage and bone pathologies” (priority 1999, published 2003).

Legend:
[1] = tested on: RARE/β-galactosidase reporter construct in F9 teratocarcinoma cell line; assay: F9 teratocarcinoma RARE/β-galactosidase reporter bioassay; assay type: cell-based
Procedure: The β-gal assay consists of an F9 teratocarcinoma cell line stably transfected with a reporter construct which contains a 64 bp retinoic acid-response element (RARE) from the promoter region of the human RARβ gene (Ellis et al., Nature 343, 377-381 (1990)) placed immediately upstream of the E. coli lacZ gene. […] Cells were maintained on gelatin-coated dishes in modified L15 CO2 tissue culture medium (Specialty Media, Lavallette, N.J.) supplemented with 20% fetal calf serum and 0.8 mg/ml G418 (complete medium), and were used when 80-90% confluent.
To prepare tissue extracts, tissues were surgically isolated from Day 10 chick embryos and included. The metaphyseal-diaphyseal portion of cartilaginous humerus and tibia from which adherent perichondral tissues were carefully removed, liver, brain, gizzard and heart. During isolation, all tissues were kept in saline on ice under yellow safety light conditions to protect the retinoids. […]
Briefly, cultures were fixed with 0.1% glutaraldehyde in 0.1 M phosphate buffer pH 7.0 for 15 min at room temperature. […] After rinsing again, cultures were extracted with 0.2 ml of DMSO and absorbance of the extracted material was determined at 655 nm using a Perkin-Elmer spectrophotometer. […]

[2] = tested on: RARa, β and γ; settings: cited from earlier work
[3] = molecular target: T1, RARγ (Homo sapiens, UniProt P13631); assay: RAR antagonism, IC50 for RARγ (literature); assay type: biochemical
T1 sequence (P13631 1-454): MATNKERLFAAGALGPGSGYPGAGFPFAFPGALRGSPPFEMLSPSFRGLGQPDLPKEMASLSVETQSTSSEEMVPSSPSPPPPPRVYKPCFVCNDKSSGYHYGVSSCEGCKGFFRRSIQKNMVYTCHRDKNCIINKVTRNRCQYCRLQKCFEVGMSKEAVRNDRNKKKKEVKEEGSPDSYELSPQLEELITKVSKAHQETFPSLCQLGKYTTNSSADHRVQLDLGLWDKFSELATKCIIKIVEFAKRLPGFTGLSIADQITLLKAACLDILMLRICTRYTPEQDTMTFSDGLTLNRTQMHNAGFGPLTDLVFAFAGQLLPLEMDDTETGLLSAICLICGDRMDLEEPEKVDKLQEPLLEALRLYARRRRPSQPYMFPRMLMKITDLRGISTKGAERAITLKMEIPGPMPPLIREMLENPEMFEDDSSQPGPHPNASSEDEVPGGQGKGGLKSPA

[4] = molecular target: T1, RARγ; settings: cited from earlier work
[5] = tested on: humerus development (chondrocyte maturation, endochondral ossification); assay: Antagonist-filled bead implantation in chick embryo wing bud, humerus development; assay type: in vivo
Procedure: This procedure was carried out as described previously (Noji et al., Acta Histochem. Cytochem. 23, 353-366 (1990); Koyama et al., Dev. Dynam. 203, 152-162 (1995)). Briefly, chick embryos or embryo parts were fixed with 4% paraformaldehyde for 4 hr or overnight, embedded in paraffin and sectioned. The 5 μm thick sections were pretreated with 1 μg/ml proteinase K (Sigma, St. Louis, Mo.) in 50 mM Tris, 5 mM EDTA, pH 7.5 at room temperature for 1 min, immediately postfixed in 4% paraformaldehyde buffer for 10 min, and then washed twice in PBS containing 2 mg/ml glycine for 10 min/wash. Sections were treated for 15 min with a freshly prepared solution of 0.25% acetic anhydride in triethanolamine buffer. Sections were hybridized with ^35S-labeled antisense or sense chick cDNA riboprobes (approximately 1×10^6 DPM/section) at 50° C. for 16 hr. After hybridization, slides were washed three times with 2×SSC containing 50% formamide at 50° C. for 20 min/wash, treated with 20 μg/ml RNaseA for 30 min at 37° C., and finally washed three times with 0.1×SSC at 50° C. for 10 min/wash. Sections were coated with Kodak NTB3 emulsion diluted 1:1 with water, exposed for 7 days, and developed with Kodak D19 for 3 min at 20° C. After staining with hematoxylin and eosin, slides were analyzed with a Nikon microscope using bright and dark field optics.
This range of concentrations was based on previous studies (see, for example, Lu et al., Development 124, 1643-1651 (1997)). Antagonist solutions were prepared in DMSO and used under yellow light conditions; control beads were soaked in DMSO alone. Beads were then dipped very briefly in phenol red-containing saline (HBSS) so that they were more readily visible during implantation.
Antagonist-containing or control beads were implanted in the wing bud of stage 21-22 (Day 3-3.5) or stage 27-28 (Day 5.5) chick embryos (Hamburger and Hamilton, J. Morphol. 88, 49-92 (1951)); contralateral wing bud served as control. A small window was opened in the egg shell and a small incision was made on the antero-dorsal proximal portion of the bud. One bead or several beads were then placed in the vicinity of the prospective humerus as specified below, and eggs were sealed and returned to the incubator. On the day of analysis, embryos were sacrificed by decapitation, and control and operated wings were examined by microscopy, using a Nikon SMZ-U dissecting photomicroscope, and humerus length was measured micrometrically. Because length of control humeri varied slightly from embryo to embryo, possibly reflecting slight differences in age, humeri were considered affected by antagonist treatment only if their length was shortened at least 25% over control value. Companion control and antagonist-treated limbs were processed for histology and in situ hybridization using tissue sections.
Having shown that RAR gene expression changes during chondrocyte maturation and that the cartilaginous elements as well as their surrounding perichondrial tissues contain endogenous retinoids, experiments were carried out to determine what roles the RARs and their ligands may play during chondrocyte maturation and skeletogenesis (see Example I, Antagonist Treatment). To approach this question, a bead containing retinoid antagonists was implanted in the vicinity of the prospective humeral mesenchymal condensation in stage 21-22 (Day 3-3.5) chick embryos and determined whether humerus development had been impaired by Day 10 in vivo.

[6] = tested on: cephalic core sternal chondrocytes; assay: Mineralization of cultured cephalic core sternal chondrocytes, alizarin red staining; assay type: cell-based, chick; settings: 6 days
Procedure: (§1) Cell populations rich in prehypertrophic and early hypertrophic chondrocytes were isolated from the cephalic core region of Day 17-18 chick embryo sterna, while immature chondrocytes were isolated from the caudal sternal region (Gibson and Flint, J. Cell Biol. 101, 277-284 (1985); Pacifici et al., Exp. Cell Res. 195, 38-46 (1991); Iwamoto et al., Exp. Cell Res. 207, 413-420 (1993b)). The dissected cephalic and caudal tissues were incubated for 1 hr at 37° C. in saline containing 0.1% type 1-S collagenase (Sigma Chemical Co., St. Louis, Mo.); the cells released after this incubation were discarded as they consisted mainly of perichondrial and blood cells. The remaining tissue was incubated in a fresh mixture of 0.25% trypsin and 0.1% collagenase for 3 hr at which point it was completely digested. The freshly isolated chondrocytes were plated at a density of 2×10^5 cells/well in 12-well plates, 1×10^6 cells/60 mm dish or 3×10^6 cells/100 mm dish. The cephalic core chondrocytes were grown continuously, without subculturing, for 2 to 3 weeks in monolayer. During the first 2 days, cultures received 4 U/ml of testicular hyaluronidase to minimize cell detachment (Leboy et al., J. Biol. Chem. 264, 17281-17286 (1989)), and cultures became confluent by 2 weeks. The caudal immature chondrocytes were first grown for 5 days at which point floating immature chondrocytes were separated from attached contaminating fibroblastic cells. The floating cells were trypsinized and replated in secondary cultures in the presence of hyaluronidase to increase cell attachment. Cultures were fed every other day with Dulbecco's modified high-glucose Eagle's medium (GIBCO BRL, Gaithersburg, Md.) containing 10% defined fetal calf serum (Hyclone, Logan, Utah), 2 mM L-glutamine, and 50 U/ml penicillin and streptomycin (Pacifici et al., Exp. Cell Res. 195, 38-46 (1991)). When indicated, cultures were treated with all-trans-RA (Sigma) or combinations of all-trans-RA and Ro 41-5253. […]

[7] = tested on: cephalic core sternal chondrocytes; assay: Cultured cephalic core sternal chondrocytes, alkaline phosphatase and type X collagen gene expression; assay type: cell-based, chick
Procedure: as §1, with “41-5253. Stock solutions of these retinoids were prepared in DMSO and were diluted into working solutions in 95% ethanol; control dishes received an equivalent amount of vehicle without retinoids. To analyze mineralization, cephalic sternal control and retinoid-treated cultures were supplemented with 3 mM β-glycerophosphate to serve as a phosphate source. During these various regimens, medium was changed daily. To localize calcium deposits, the cell layers were stained with 0.5% alizarin red S solution, pH 4.0, for 5 min at room temperature. In experiments in which cultures were treated for 2, 4 or 6 days, retinoid treatments were initiated so that all cultures (including control cultures) were harvested simultaneously.” for “41-5253.”

[8] = tested on: caudal sternal chondrocytes; assay: Cultured immature caudal sternal chondrocytes, Northern blot of type X collagen; assay type: cell-based, chick
Procedure: as §1

[9] = tested on: RARE/β-galactosidase reporter construct in F9 teratocarcinoma cell line; settings: cited from earlier work
[10] = beads implanted Day 5.5, examined Day 8.5

Question: For CC1=C(/C=C/C(C)=C\C=C\C(C)=C\C(=O)O)C(C)(C)CCC1 [9-cis-RA], which “efficiency of stimulating transcription, fold lower than all-trans-RA” value ([1]; F9 reporter cells, unpublished observations) is on record?
Answer: 10 fold

Question: What does the source list for Cc1ccc(C2=CCC(C)(C)c3ccc(C#Cc4ccc(C(=O)O)cc4)cc32)cc1 [AGN 109]?
Answer: antagonism across RAR isotypes (selectivity in words) [2]: inhibits equally well RARa, β and γ; fold lower IC50 for RARγ compared to Ro 41-5253 [3]: ~500 fold; IC50 [4]: 5 nM; embryos with inhibited humerus development ([5]; 3-4 beads implanted Day 5.5 (stage 28), examined Day 8.5): 6/7; chondrocyte maturation and endochondral ossification in treated humerus (histology, in situ hybridization) ([5]; bead implanted at early stage, Day 10 humeri): chondrocyte maturation and long bone development are interrupted; concentration required for high frequency of humeral defects, relative to Ro 41-5253 ([5]; bead implanted stage 21-22, Day 10): much lower concentrations; hypertrophy and RARγ / type X collagen transcripts in treated humeri [5, 10]: had not advanced to the hypertrophic stage and lacked transcripts encoding RARγ and type X collagen; type II collagen expression in treated humeri (cell viability and differentiated functions) [5, 10]: very strong expression of type II collagen; delay of humerus development (reversibility) ([5]; beads implanted stage 28 (Day 5.5), examined Day 14): about 5 days; inhibition of humerus development ([5]; single bead implanted Day 5.5 (stage 28), examined Day 8.5 (5/5)): not very effective

Question: Which results are given for CCCCCCCOc1cc2c(cc1/C(C)=C/c1ccc(C(=O)O)cc1)C(C)(C)CCS2(=O)=O [Ro 41-5253]?
Answer: mineralization on co-treatment with all-trans-RA ([6]; 500 nM with 25 or 50 nM all-trans-RA): almost no mineralization; mineralization, antagonist alone ([6]; antagonist alone): had no effects; alkaline phosphatase and type X collagen gene expression, antagonist alone ([7]; antagonist alone): no major effects; effect on all-trans-RA responses of alkaline phosphatase and type X collagen genes ([7]; co-treatment with 50 nM all-trans-RA, Ro 41-5253 at 500 nM): counteracted; antagonism across RAR isotypes (selectivity in words) [2]: antagonistic effects on all RAR isoforms but preferentially on RARa; IC50 [4]: 3300 nM; type X collagen transcripts, antagonist alone ([8]; antagonist alone): did not have major effects; effect on all-trans-RA-induced increase in type X collagen transcripts ([8]; co-treatment 500 nM with 50 nM all-trans-RA): significantly, though not totally, blocked; humerus shortening versus control contralateral humerus ([5]; bead implanted stage 21-22, Day 10 embryos): about 50%

Question: Which “lowest exogenous concentration to which reporter cells are very sensitive (high expression of β-gal)” value [9] does the source give for CC1=C(/C=C/C(C)=C/C=C/C(C)=C/C(=O)O)C(C)(C)CCC1 [all-trans-RA] here?
Answer: 10 pM

Question: What about the “mineral deposition (alizarin red)” value ([6]; 25 or 50 nM, with β-glycerophosphate) of the same compound?
Answer: abundant alizarin red-stainable mineral

Question: What about the “alkaline phosphatase gene expression” value ([7]; 50 nM) of the same compound?
Answer: increased dramatically

Question: And the “type X collagen expression” value ([7]; 50 nM, 6 days of treatment)?
Answer: essentially eliminated

Question: What about the “β-galactosidase reporter response (histochemical)” value ([1]; 3 nM, 24 hr, positive control) of the same compound?
Answer: positive

Question: What about the “type X collagen transcripts” value ([8]; 50 nM, 2, 4 or 6 days) of the same compound?
Answer: marked time-dependent increase
